We go through 22 compounds from patent US11299461B2 (priority 2018, dated 2022).

The target in this assay is LF 263-C catalytic domain (anthrax lethal factor) (Bacillus anthracis, UniProt P15917). Nature of the assay: biochemical.
Chain of LF 263-C catalytic domain (anthrax lethal factor) (P15917 296-809 limits assumed): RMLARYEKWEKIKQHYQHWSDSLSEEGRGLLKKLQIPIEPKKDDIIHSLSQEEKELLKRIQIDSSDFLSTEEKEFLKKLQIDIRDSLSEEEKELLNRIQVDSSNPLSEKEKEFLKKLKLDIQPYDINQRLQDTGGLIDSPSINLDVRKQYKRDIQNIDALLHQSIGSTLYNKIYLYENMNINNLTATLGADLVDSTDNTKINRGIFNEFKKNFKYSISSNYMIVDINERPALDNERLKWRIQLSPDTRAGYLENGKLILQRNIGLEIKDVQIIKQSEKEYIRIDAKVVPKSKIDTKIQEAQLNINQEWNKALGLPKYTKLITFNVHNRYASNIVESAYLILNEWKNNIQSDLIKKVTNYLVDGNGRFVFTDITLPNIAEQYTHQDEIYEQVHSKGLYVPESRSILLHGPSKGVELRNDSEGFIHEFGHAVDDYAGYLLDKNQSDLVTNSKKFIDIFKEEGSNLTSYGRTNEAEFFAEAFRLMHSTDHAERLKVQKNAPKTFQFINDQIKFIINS
Consider `CC(C)[C@@H](NCCCC[C@@H](Cc1cc(Cl)c(F)c(Cl)c1)C(=O)NO)c1ccc(F)cn1` [Compound 34, (S)-2-(3,5-dichloro-4-fluorobenzyl)-6-(((R)-1-(5-fluoropyridin-2-yl)-2-methylpropyl)amino)-N-hydroxyhexanamide], for which affinity was put at a Ki of 0.6 nM.
In the case of `CC(C)[C@@H](NCCCC[C@@H](Cc1cc(Cl)c(F)c(Cl)c1)C(=O)NO)c1ccc(Cl)cn1` [Compound 35, (S)-6-(((R)-1-(5-chloropyridin-2-yl)-2-methylpropyl)amino)-2-(3,5-dichloro-4-fluorobenzyl)-N-hydroxyhexanamide] it was 0.42 nM.
Then `Cc1cc(C[C@H](CCCCN[C@@H](c2ccc(F)cn2)C(C)C)C(=O)NO)cc(F)c1F` [Compound 36, (S)-2-(3,4-difluoro-5-methylbenzyl)-6-(((R)-1-(5-fluoropyridin-2-yl)-2-methylpropyl)amino)-N-hydroxyhexanamide], with 0.72 nM; and `Cc1cc(C[C@H](CCCCN[C@@H](c2ccc(Cl)cn2)C(C)C)C(=O)NO)cc(F)c1F` [Compound 37, (S)-6-(((R)-1-(5-chloropyridin-2-yl)-2-methylpropyl)amino)-2-(3,4-difluoro-5-methylbenzyl)-N-hydroxyhexanamide], with 0.87 nM.
Then `COc1ccc(CN(C)CCCC[C@@H](Cc2cc(C)c(F)c(F)c2)C(=O)NO)nc1` [Compound 38, (S)-2-(3,4-difluoro-5-methylbenzyl)-N-hydroxy-6-(((5-methoxypyridin-2-yl)methyl)(methyl)amino)hexanamide], with 4.9 nM; and `CO[C@H](C[C@H](CCCCN[C@H](CO)c1ccc(F)cn1)C(=O)NO)c1ccc(F)cc1` [Compound 39, (S)-2-((R)-2-(4-fluorophenyl)-2-methoxyethyl)-6-(((S)-1-(5-fluoropyridin-2-yl)-2-hydroxyethyl)amino)-N-hydroxyhexanamide], with 1.7 nM; and `CCN(CCCC[C@@H](C[C@@H](OC)c1ccc(F)cc1)C(=O)NO)Cc1ccc(Cl)cn1` [Compound 40, (S)-6-(((5-chloropyridin-2-yl)methyl)(ethyl)amino)-2-((R)-2-(4-fluorophenyl)-2-methoxyethyl)-N-hydroxyhexanamide], with 4.5 nM.
Take `CO[C@H](C[C@H](CCCCNCc1ccc(Cl)cn1)C(=O)NO)c1ccc(F)cc1` [Compound 41, (S)-6-(((5-chloropyridin-2-yl)methyl)amino)-2-((R)-2-(4-fluorophenyl)-2-methoxyethyl)-N-hydroxyhexanamide]: affinity was put at a Ki of 2.2 nM.
In the case of `CO[C@H](C[C@H](CCCCN(C)Cc1ccc(Cl)cn1)C(=O)NO)c1ccc(F)cc1` [Compound 42, (S)-6-(((5-chloropyridin-2-yl)methyl)(methyl)amino)-2-((R)-2-(4-fluorophenyl)-2-methoxyethyl)-N-hydroxyhexanamide] it was 3 nM.
Consider `CO[C@H](C[C@H](CCCCN(C)Cc1ccc(Br)cn1)C(=O)NO)c1ccc(F)cc1` [Compound 43, (S)-6-(((5-bromopyridin-2-yl)methyl)(methyl)amino)-2-((R)-2-(4-fluorophenyl)-2-methoxyethyl)-N-hydroxyhexanamide], for which the Ki – broadly, the equilibrium dissociation constant of an inhibitor or competing ligand from its target – was found to be 12.5 nM.
`CCc1cc(Cl)cnc1CN(C)CCCC[C@@H](C[C@@H](OC)c1ccc(F)cc1)C(=O)NO` [Compound 44, (S)-6-(((5-chloro-3-ethylpyridin-2-yl)methyl)(methyl)amino)-2-((R)-2-(4-fluorophenyl)-2-methoxyethyl)-N-hydroxyhexanamide] had a Ki of 6.7 nM. Compared with the last compound, the Ki is about 1.9-fold lower.
Then `CO[C@H](C[C@H](CCCCN(C)Cc1cccc(C)n1)C(=O)NO)c1ccc(F)cc1` [Compound 45, (S)-2-((R)-2-(4-fluorophenyl)-2-methoxyethyl)-N-hydroxy-6-(methyl((6-methylpyridin-2-yl)methyl)amino)hexanamide], with 15.8 nM; and `CO[C@H](C[C@H](CCCCN(C)Cc1cc(C)ccn1)C(=O)NO)c1ccc(F)cc1` [Compound 46, (S)-2-((R)-2-(4-fluorophenyl)-2-methoxyethyl)-N-hydroxy-6-(methyl((4-methylpyridin-2-yl)methyl)amino)hexanamide], with 14 nM.
In the case of `CO[C@H](C[C@H](CCCCN(CCO)Cc1ncc(F)cc1Cl)C(=O)NO)c1ccc(F)cc1` [Compound 47, (S)-6-(((3-chloro-5-fluoropyridin-2-yl)methyl)(2-hydroxyethyl)amino)-2-((R)-2-(4-fluorophenyl)-2-methoxyethyl)-N-hydroxyhexanamide] it was 53.5 nM.
Then `CO[C@H](C[C@H](CCCCN[C@@H](c1ccc(F)cn1)C(C)C)C(=O)NO)c1ccc(F)cc1` [Compound 48, (S)-2-((R)-2-(4-fluorophenyl)-2-methoxyethyl)-6-(((R)-1-(5-fluoropyridin-2-yl)-2-methylpropyl)amino)-N-hydroxyhexanamide], with 0.62 nM.
For the compound `COc1ccc([C@H](NCCCC[C@@H](C[C@@H](OC)c2ccc(F)cc2)C(=O)NO)C(C)C)nc1` [Compound 49, (S)-2-((R)-2-(4-fluorophenyl)-2-methoxyethyl)-N-hydroxy-6-(((R)-1-(5-methoxypyridin-2-yl)-2-methylpropyl)amino)hexanamide], the Ki was determined as 2.7 nM.
In the case of `CO[C@H](C[C@H](CCCCN[C@@H](c1ccc(F)c(C)n1)C(C)C)C(=O)NO)c1ccc(F)cc1` [Compound 50, (S)-6-(((R)-1-(5-fluoro-6-methylpyridin-2-yl)-2-methylpropyl)amino)-2-((R)-2-(4-fluorophenyl)-2-methoxyethyl)-N-hydroxyhexanamide] it was 2.7 nM; in that of `CO[C@H](C[C@H](CCCCN[C@@H](c1ccc(Cl)cn1)C(C)C)C(=O)NO)c1ccc(F)cc1` [Compound 51, (S)-6-(((R)-1-(5-chloropyridin-2-yl)-2-methylpropyl)amino)-2-((R)-2-(4-fluorophenyl)-2-methoxyethyl)-N-hydroxyhexanamide], 0.54 nM; in that of `CO[C@H](C[C@H](CCCCN[C@@H](c1ncc(F)cc1F)C(C)C)C(=O)NO)c1ccc(F)cc1` [Compound 52, (S)-6-(((R)-1-(3,5-difluoropyridin-2-yl)-2-methylpropyl)amino)-2-((R)-2-(4-fluorophenyl)-2-methoxyethyl)-N-hydroxyhexanamide], 2.1 nM.
In the case of `CO[C@H](C[C@H](CCCCN[C@@H](c1ncc(Cl)cc1Cl)C(C)C)C(=O)NO)c1ccc(F)cc1` [Compound 53, (S)-6-(((R)-1-(3,5-dichloropyridin-2-yl)-2-methylpropyl)amino)-2-((R)-2-(4-fluorophenyl)-2-methoxyethyl)-N-hydroxyhexanamide] it was 6.2 nM.
In the case of `CC[C@@H](NCCCC[C@@H](C[C@@H](OC)c1ccc(F)cc1)C(=O)NO)c1ncc(Cl)cc1Cl` [Compound 54, (S)-6-(((R)-1-(3,5-dichloropyridin-2-yl)propyl)amino)-2-((R)-2-(4-fluorophenyl)-2-methoxyethyl)-N-hydroxyhexanamide] it was 2.4 nM; in that of `CO[C@H](C[C@H](CCCCN[C@H](C)c1ccc(Cl)cn1)C(=O)NO)c1ccc(F)cc1` [Compound 55, (S)-6-(((R)-1-(5-chloropyridin-2-yl)ethyl)amino)-2-((R)-2-(4-fluorophenyl)-2-methoxyethyl)-N-hydroxyhexanamide], 1.6 nM.
